Patent publication US20210223252A1, “METHODS FOR PROTEOMIC PROFILING USING NON-NATURAL AMINO ACIDS” (California Institute of Technology, priority 2004, published 2021)

Columns and labels:
[1] = test system: dissociated hippocampal neurons; experiment: AHA toxicity by whole neuron morphology (GFP reporter); type: cell-based, rat; settings: 2 hrs incubation
Method: Dissociated hippocampal neuron cultures were prepared from newborn rat pups (PO) as outlined in (Banker and Goslin, 1990), Neurons were plated at a density of 15,000-45,000 cells/cm^2 onto poly-D-lysine coated cell culture dishes or onto poly-D-lysine and growth factor reduced matrigel (BD Biosciences) coated polycarbonate nets with a pore size of 3 (Transwell, Corning) for the preparation of isolated dendrites. The cultures were maintained and allowed to mature in growth medium (Neurobasal-A supplemented with B27 and GlutaMAX-1) for 14 to 21 days before use. The use of this growth medium suppressed glial proliferation, which was even more reduced by application of Ara-C (5 μM final concentration). To supplement glial neurotrophic factors, 25% conditioned growth media from glial and cortical cultures were added to the growth media. Isolated dendrites were obtained from Transwell cultures by removing the cell body layer with a sterile cell lifter after change to HBS. For immunolabeling after AHA-incorporation and cycloaddition with BiotinCyclooctyne, neurons are fixed at room temperature with 4% paraformaldehyde for 20 minutes. […] Images are recorded through standard emission filters at contrast settings for which the crossover between the two channels is negligible. […]

HEK293 cells [2] = experiment: Ubiquitin signal on Western blot of whole lysates (protein degradation); type: cell-based; settings: treated two hours
Method: To show the specificity of this technique for the detection of newly synthesized proteins, HEK293 cells were incubated for 2 hrs with AHA in the presence or absence of a protein synthesis inhibitor (Anisomycin or Cycloheximide). After incubation, cells were lysed and subjected to [3+2]cycloaddition with the biotin-bearing alkyne-linker Biotin-PEO-Propargylamide, followed by Western blot analysis with an anti-Biotin-antibody. […] The potential for increased protein degradation was measured by examining the ubiquitin signal strength on a Western blot from whole lysates of HEK293 cells, which were treated with AHA, methionine or incubation buffer for two hours.

[3] = test system: E. coli and mammalian cells; experiment: Protein degradation upon introduction of AHA; type: cell-based; settings: studies in E. coli and experiments in mammalian cells
HEK293 cells [4] = experiment: Detection of newly synthesized proteins: AHA labelling, [3+2]cycloaddition with Biotin-PEO-Propargylamide, anti-Biotin Western blot; type: cell-based; settings: HEK293 cells incubated 2 hrs with AHA in the presence of the protein synthesis inhibitor
Method: In embodiments using [3+2] Cycloaddition, the following exemplary protocol may be used. Briefly, AHA, Biotin-PEO-Propargylamide and the triazole ligand were prepared as described previously. The tandem featured alkyne tag was synthesized by GenScript Corporation. Biotin-Cyclooctyne is a generous gift from Carolyn Bertozzi. DIO-L-leucine was purchased from Sigma. In all culture experiments, growth medium was removed from HEK293 cells, whole neuronal cultures or isolated dendrites were replaced with HEPES-buffered solution (HBS) with 2.86 mM AHA, and 2.86 mM methionine for control experiments. After incubation at 37° C., 5% CO2, cells were washed with PBS-MC (1 mMMgCl2, 0.1 mM CaCl2 in PBS) to remove excess amounts of AHA and methionine. SNS and other biochemical fractions are incubated with 2.86 mM AHA or 2.86 mM methionine under agitation at 37° C. and washed in StimBuffer after incubation. […]
To show the specificity of this technique for the detection of newly synthesized proteins, HEK293 cells were incubated for 2 hrs with AHA in the presence or absence of a protein synthesis inhibitor (Anisomycin or Cycloheximide). […] The potential for increased protein degradation was measured by examining the ubiquitin signal strength on a Western blot from whole lysates of HEK293 cells, which were treated with AHA, methionine or incubation buffer for two hours.

Structure (SMILES): [N-]=[N+]=NCC[C@H](N)C(=O)O [AHA, azidohomoalanine]
- gross morphology of neurons compared to methionine controls ([1]; 12 DIV neurons expressing GFP reporter): no change in the gross morphology
- toxicity to neurons ([1]; primary/dissociated hippocampal neuronal cultures, equimolar AHA or methionine control): not toxic
- ubiquitination compared to buffer or methionine controls (HEK293 cells [2]): No increased ubiquitination
- increased protein degradation [3]: no evidence of increased protein degradation

Structure (SMILES): C[C@@H]1C[C@@H]([C@H](O)CC2CC(=O)NC(=O)C2)C(=O)[C@@H](C)C1 [Cycloheximide]
- anti-Biotin Western blot signal of AHA-labelled newly synthesized proteins (HEK293 cells [4]): No signal was detected

Structure (SMILES): COc1ccc(C[C@H]2NC[C@H](O)[C@H]2OC(C)=O)cc1 [Anisomycin]
- anti-Biotin Western blot signal of AHA-labelled newly synthesized proteins (HEK293 cells [4]): No signal was detected
